Data from PubChem BioAssay AID1996.
Converted amounts (≈) assume the structure as drawn.

Conditions: buffer; pH 7.4; 200.0 µM

| Structure (SMILES) | solubility kinetic [µg/mL] |
| --- | --- |
| O=c1ccc2c([nH]1)CCCCCCCCCC2 | 5.2 (≈ 22.3 µM) |
| CCS(=O)(=O)N1CCC(C(=O)Oc2ccc(Cl)cc2)CC1 | 9.9 (≈ 29.8 µM) |
| Nc1cc(N)nc(SCC(=O)NCC(=O)Nc2ccc(F)c(F)c2F)n1 | 51.3 (≈ 133 µM) |
| COc1ccc(CCC(=O)NCCOc2ccccc2Cl)cc1 | > 50.1 |
| O=c1[nH]c2ccc(NC(=S)NCc3ccccc3)cc2[nH]1 | 7.6 (≈ 25.5 µM) |
| CC(C(=O)Nc1cccc(C#N)c1)N(C)CCOc1ccccc1 (stereo not given) | 31.8 (≈ 98.3 µM) |
| CCCCCOc1ccc(C(=O)CCN2CCOCC2)cc1.Cl | 34.9 |
| Cc1ccc(O)c(NC(=O)c2cc([N+](=O)[O-])ccc2Cl)c1 | 8.5 (≈ 27.7 µM) |
| Cl.O=C(NCCCN1CCOCC1)c1cc(S(=O)(=O)N2CCOCC2)ccc1Cl | > 70.3 |
| CN(C(=O)c1ccc2nc(N)sc2c1)c1ccccc1 | 40.8 (≈ 144 µM) |
| O=[N+]([O-])c1ccc(COc2cccnc2)cc1 | > 34.5 |
| O=C(N/N=C/c1cc(Cl)cc([N+](=O)[O-])c1O)C1CC1 | > 42.6 |
| COc1cccc(CNC(=O)CCCc2c[nH]c3ccccc23)c1 | 47 (≈ 146 µM) |
| Cc1cc(C)c2c(CC(=O)NCCc3ccccc3)coc2c1 | < 0.7 |
| CCOC(=O)c1ccccc1NC(=S)N1CCC(C(N)=O)CC1 | 41.6 (≈ 124 µM) |
| CCOc1ccc(N=Cc2c(O)n(-c3ccc(C)c(C)c3)c(=O)[nH]c2=O)cc1 | 2.9 (≈ 7.64 µM) |
| CNC(=O)O/N=C(\N)Cc1csc2ccccc12 | 39.2 (≈ 149 µM) |
| Cl.O=C(c1cc2c(s1)CCCC2)N1CCN(CCO)CC1 | > 49.6 |
| CSc1ncccc1C(=O)NCCc1ccccc1 | 37.2 (≈ 137 µM) |
| CC(NC(=O)c1ccccc1C(=O)O)c1ccc(-n2ccnc2)cc1 (stereo not given) | > 50.3 |

| Structure (SMILES) | solubility kinetic [µg/mL] |
| --- | --- |
| Cl.Clc1cccc(OCCn2ccnc2)c1 | > 38.9 |
| O=S(=O)(/C=C/c1ccccc1)N1CCc2ccccc2C1 | < 0.6 |
| COC(=O)c1ccc(NC(=O)COc2ccc([N+](=O)[O-])cc2)cc1 | 0.4 (≈ 1.21 µM) |
| CCC1CCC/C1=N\NC(=O)c1ccc(Cl)cc1 (stereo not given) | > 39.7 |
| CCN(C(=O)COC(=O)c1ccco1)c1cccc2ccccc12 | 47.4 (≈ 147 µM) |
| N#C/C(=C\C=C\c1ccccc1)C(=O)NCc1cccnc1 | 6.3 (≈ 21.8 µM) |
| COc1ccc2[nH]cc(CCNC(=O)Cc3ccc(F)cc3)c2c1 | 25.4 (≈ 77.8 µM) |
| CCN1CCN(c2nc3c(c(=O)[nH]2)CCC3)CC1 | 36.1 (≈ 145 µM) |
| CCCCNC(=O)Nc1ccc(C2SCCS2)cc1 | 9.9 (≈ 33.4 µM) |
| O=C(Cn1c(=O)oc2ccccc21)Nc1ccc(F)c(F)c1 | 7.9 (≈ 26 µM) |
| COc1ccc(CCNC(=O)c2ccc3nc[nH]c3c2)cc1 | > 44.3 |
| N#Cc1ccccc1OCC(=O)Nc1ccc2c(c1)OCCO2 | 19.7 (≈ 63.5 µM) |
| CCCCn1c(C)c(C(=O)O)c2cc(OC)c3ccccc3c21 | 2.9 (≈ 9.31 µM) |
| CN(C(=O)COC(=O)c1cccnc1Cl)C1CCCCC1 | > 46.6 |
| O=C(c1cc(F)c(F)cc1Cl)N1CCN(c2ncccn2)CC1 | 49.3 (≈ 146 µM) |
| Nc1ccccc1SCC(O)Cn1ccc2ccccc21 (stereo not given) | > 44.8 |
| COc1ccc(C(=O)OCC(=O)NCCc2ccc(F)cc2)cc1S(=O)(=O)N1CCOCC1 | > 72.1 |
| O=S(=O)(NCCc1ccccn1)c1ccc(-c2ccccn2)s1 | 30.6 (≈ 88.6 µM) |
| CCN(CC)S(=O)(=O)c1cccc(C(=O)NC2=NCCS2)c1 | 34.8 (≈ 102 µM) |
| CC#CC[N+](C)(C)CCCCCCCCCC.[Br-] | > 47.8 |

| Structure (SMILES) | solubility kinetic [µg/mL] |
| --- | --- |
| N#CCC(=O)Nc1ccc(C(=O)OCC(=O)c2c[nH]c3ccccc23)cc1 | 4.7 (≈ 13 µM) |
| O=C(NCCc1ccc2c(c1)OCCO2)c1ccccn1 | > 42.6 |
| COc1c(Cl)cc(Cl)cc1C(=O)Nc1ccc(CN2CCOCC2)cc1 | 2.6 (≈ 6.58 µM) |
| CC(=O)N/C(=N/c1nc(C)cc(C)n1)Nc1ccc(C)cc1Cl | 0.2 (≈ 0.603 µM) |
| c1ccc2c(c1)CCNC2c1ccncc1 (stereo not given) | > 31.5 |
| COC(=O)CC(NC(=O)C1CC1)c1ccc2c(c1)OCO2 (stereo not given) | > 43.7 |
| COc1ccc(C)cc1S(=O)(=O)NC(C)C(=O)NC1CC1 (stereo not given) | > 46.9 |
| N[C@@H](Cc1cc(Br)c(O)c(Br)c1)C(=O)O | > 50.8 |
| CC(=O)NC(CC(=O)Nc1ccc(S(=O)(=O)N2CCOCC2)cc1)c1ccccc1 (stereo not given) | > 64.7 |
| Cn1cc(S(=O)(=O)N2CCOCC2)cc1C(=O)O | > 41.1 |
| O=C(NCCC(=O)N1CCCCCCC1)c1ccc(Cl)cc1 | > 48.4 |
| Cc1cc(NC(=O)C2CC(=O)N(c3ccccc3C)C2)no1 (stereo not given) | > 44.9 |
| CCN(CC)C(=O)Oc1cc(COC)nc(-c2ccccc2)n1 | 39.5 (≈ 125 µM) |
| Cn1cc(C(=O)NCCO)c(=O)c2ccccc21 | > 36.9 |
| COC(=O)[C@H](CCSC)NC(=O)NC1CC1 | > 36.9 |
| CC(NC(=O)CSc1ncccn1)c1ccc2c(c1)OCO2 (stereo not given) | > 47.6 |
| ClC1(Cl)CC1CSc1nc2ccccc2[nH]1 (stereo not given) | 39.8 (≈ 146 µM) |
| O=C(NCCc1c[nH]c2ccccc12)c1cc([N+](=O)[O-])cc([N+](=O)[O-])c1 | 15.2 (≈ 42.9 µM) |
| O=C(CNC(=O)c1ccc(Br)cc1)Nc1ccc2c(c1)CCC2 | 2.5 (≈ 6.7 µM) |
| CC(=O)Nc1c(-c2ccccc2)nc2cc(C)ccn12 | 29.4 (≈ 111 µM) |
